Non-standard residues stand in square brackets, D forms with d. Residues, ends and D or L forms follow the SMILES beside them. pGlu = O=C1CC[C@@H](C(=O)O)N1; azaGly = NNC(=O)O A value given as a limit tells only on which side of the number the result lay.

For data set [1], the system named is human placental GnRH receptor. The experiment in a line: Placental GnRH receptor binding, radiolabeled D-Arg(6)-chicken II GnRH-aza-Gly(10)-amide label. The method, then: The newly synthesized non-mammalian GnRH analogs and other commercially available mammalian GnRH analogs were used in placental receptors binding and enzyme stability study described here. On the basis of these studies, the most receptor potent and enzyme-stable analogs were chosen for further biopotency studies. GnRH receptors were purified from the membrane fractions from placentas. The purification procedure for the placental GnRH receptor was performed using a modification of the method described by Bramley et al., which reference is specifically incorporated herein by reference for the purpose. Addition of enzyme inhibitors for the endogenous C-ase-1 were used as well as agents for receptor stabilization. Initially, receptor-binding assays using ^125I-Buserelin as label were performed. The competitive binding of each of the analogs was studied over a dose range of 10^−11 to 10^−6 M. Incubation was at room temperature and receptor bound label was precipitated with polyethylene glycol. Specific and non-specific binding was determined. The data was subjected to Scatchard analysis. The non-mammalian GnRH analogs' ability to bind to the placental GnRH receptor was compared to that for synthetic mammalian GnRH (SEQ ID NO: 5), Buserelin (SEQ ID NO: 10) and other mammalian analogs. […] This way, the receptor affinity for that analog could be precisely determined. Receptors from three different term placentas were used to study each of these analogs. […] Bramley T A, McPhie C A, Menzies G S 1994 Human placental gonadotropin-releasing hormone (GnRH) binding sites: 111. Changes in GnRH binding levels with stage of gestation. Placenta 15:733-745.
In these and additional studies, placental GnRH receptors were purified from human term placentas after homogenization in 40 mM Tris (pH 7.4) and filtered through cheesecloth, followed by an initial centrifugation at 1,000×g for 10 minutes. The resulting supernatant was, again, centrifuged at 35,000×g for 30 minutes and the membrane pellet was collected and resuspended in Tris buffer with 0.3 M sucrose. The protein concentration was determined. Membranes were stored frozen at −20 C until use. Before use, placental membranes were diluted to 5,000 μg/mL with Tris buffer containing 0.5% BSA and 50 U/mL bacitracin. Placental membranes (100 μL) were used with varying concentrations of mammalian GnRH (SEQ ID NO: 5), Buserelin (SEQ ID NO: 10), chicken II GnRH (SEQ ID NO: 6), D-Arg (6)-chicken II GnRH-des-Gly (10)-ethylamide (SEQ ID NO: 2), or D-Arg (6)-chicken II GnRH-aza-Gly (10)-amide (SEQ ID NO: 2) (100 μL) and either radiolabeled Buserelin (SEQ ID NO: 10) or radiolabeled D-Arg (6)-chicken II GnRH-aza-Gly (10)-amide (SEQ ID NO: 2) (100 μL/tube and iodinated). Following incubation at room temperature for 4 hours, the bound and free hormones were separated using polyethylene glycol precipitation, followed by centrifugation. The binding affinity for each GnRH isoform or analog was calculated using the double reciprocal plot of bound versus free ligand. Each study was done using three different human term placental tissues.

Data set [2] addresses chorionic peptidase-1 (C-ase-1). The experiment in a line: C-ase-1 enzyme activity assay, competition for degradation of GnRH. The conditions noted are these: competition for degradation of mammalian GnRH, Example III.
Protocol: (§1) Using the incubation system developed for the C-ase-1 activity, the degradation of each analog was tested. […] These studies were done using the C-ase-1 enzyme activity assay as described previously. […] The product formed was calculated by subtraction, and its inverse plotted against the inverse of the original substrate concentrations to determine the nature of the competition. The Ki was to be determined by plotting the inverse of the product that formed verses the inhibitor used.
(§2) The concentration of the product of the degraded GnRH was quantified by subtracting the remaining mammalian GnRH from the starting concentrations of mammalian GnRH. […] The Ks for the degradation of mammalian GnRH was calculated from the x axis intercept using Lineweaver-Burke double reciprocal plot of the concentration of the product formed versus the concentration of the substrate used.
(§3) The reaction was stopped by heating at 85° C. for 10 minutes. The remaining GnRH was determined using a specific radioimmunoassay. The formation of product, i.e., the N-terminal nonapeptide of GnRH, was calculated by subtraction and its inverse was plotted versus the inverse of the initial substrate to determine the Ks of the reaction. […] The relative potency of each analog was compared.
(§4) Using the incubation system developed for the C-ase-1 activity, the degradation of each analog was studied. […] The inverse of the product was plotted against the inverse of the original substrate concentrations to determine Ks of the competition. The Ki was determined by plotting the inverse of the product formed verses the inhibitor used.
Data set [3] relates to baboon ovarian enzymatic activity.
Protocol: In these studies the enzyme was in the ovarian extract.
In this assay, following incubation of the enzyme and GnRH, with and without the chosen analog, the reaction was stopped by heating and the remaining GnRH substrate was quantified by radioimmunoassay. The product formed is calculated by subtraction, and its inverse plotted against the inverse of the original substrate concentrations to determine the nature of the competition. The Ki was determined by plotting the inverse of the product formed versus the inhibitor used.
In data set [4] the test system is human placental GnRH receptor. The experiment in a line: Placental GnRH receptor binding, 125I-Buserelin label. Conditions: Buserelin label.
In data set [5] the test system is chorionic peptidase-1 (C-ase-1).
Protocol: as §1, §2, §3, §4
Data set [6] concerns human granulosa cells receptor. The experiment in a line: Human granulosa cell receptor binding. An excerpt:
Due to the limited number of cells it was not possible to precisely define the affinity of this receptor.

Data set [7] has as its target baboon ovary GnRH receptor. The experiment in a line: Baboon ovary membrane GnRH receptor binding. Conditions: baboon ovary membranes; read-out: GnRH receptor affinity. The method, then: The receptor binding activity of newly synthesized non-mammalian GnRH analogs was studied in ovarian and uterine tissues. […] The ovaries of the three baboons were extracted and the cytosolic and membrane fractions were recovered for the tissues. The membrane fraction from one animal was titred for GnRH receptor binding activity using D-Arg(6)-chicken II GnRH-aza-Gly(10)-amide radiolabeled ligand. Receptors were clearly demonstrable even at 4 μg membrane protein/tube. […] The chicken II GnRH analog (SEQ ID NO: 2) had the highest affinity for any GnRH analog reported to date.

In general, Ki refers to the equilibrium dissociation constant of an inhibitor or competing ligand from its target. Consider `N=C(N)NCCC[C@@H](NC(=O)[C@H](Cc1c[nH]cn1)NC(=O)[C@H](CO)NC(=O)[C@H](Cc1c[nH]c2ccccc12)NC(=O)[C@H](Cc1c[nH]cn1)NC(=O)[C@@H]1CCC(=O)N1)C(=O)N[C@@H](Cc1c[nH]c2ccccc12)C(=O)N[C@@H](Cc1ccc(O)cc1)C(=O)N1CCC[C@H]1C(=O)NNC(N)=O` [D-Arg(6)-chicken II GnRH-aza-Gly(10)-amide] ([pGlu]HWSH[dR]WYP[azaGly]-NH2), for which, in data set [1] (analog label), the “binding affinity compared with mammalian GnRH” value amounted to 25 fold. Moreover, the Kd stood at 68 nM in data set [1] (placenta 2 membrane preparation, read-out: affinity constant (Ks)); 93 ± 23 nM in data set [1] (three placental membrane preparations, read-out: average binding affinity); 175 ± 59 nM in data set [4] (term placental membranes, read-out: dissociation constant (Kd)); 10 nM in data set [7]. Further, in data set [1] (versus Buserelin label), the “enhancement of affinity when the analog is used as label” value was 2 fold. Besides, the Ki in data set [2] was more than 400 nM; in data set [3] (competition with degradation of mammalian GnRH) it was not below 1500 nM. In data set [3], the “stability compared with mammalian GnRH” value is “more than 50 times”. Besides, the “receptor binding potency compared with chicken II GnRH isoform or Buserelin” value in data set [4] (Example II) turned out to be 2 fold. For the same molecule, the “receptor binding potency compared with mammalian GnRH” value in data set [4] (Example II) is 60 fold. Also, in data set [5], the “degradation by / competition for C-ase-1, in words” value is “essentially not degraded”. Further, the receptor binding entry in data set [6] was “receptor binding for the GnRH analog was observed”.
